Experimental data: patent US20260055126A1, “SMALL MOLECULE COMPOUNDS WITH PHOSPHORYLATED ARYL STRUCTURES AND USE THEREOF” (HANGZHOU PHECDAMED CO., LTD., priority 2022, published 2026)

How the values were obtained:
[1] = In vitro liver microsome stability, rat; type: in vitro ADME; conditions: rat liver microsomes
Protocol: (§1) Testosterone is selected as the positive reference compound. The specific method is as follows:
(§2) Preparing 0.1MK3 PO4 (pH 7.4) buffer and 3×NADPH stock solution (6 mM, 5 mg/mL), and preheating in a 37° C. water bath; preparing spiking solution of tested compound and control compound: adding 5 μL compound stock solution (10 mM) to 95 μL acetonitrile; preparing 1.5 μM spiking solution in microsomes (0.75 mg/mL): add 1.5 μL spiking solution and 18.75 μL liver microsome solution (20 mg/mL) to 479.75 μL K3PO4 buffer; taking 30 μL spiking solution in microsomes and adding it to the multiwell plate, and incubating at 37° C. for 5 min; adding 15 μL of NADPH stock solution to each well, starting to react, and timing; adding 150 μL of acetonitrile solution containing IS at 0 min, 5 min, 15 min, 30 min, 45 min and 60 min respectively to terminate the reaction; after 10 min of oscillation, centrifuging the reaction at 6000 rpm for 15 min; taking 80 μL of supernatant from each well for LC/MS detection and calculating Ti/2.
(§3) Liver microsomes of mice, rats, dogs, and human used in the experiment are purchased from Xenotech.

[2] = molecular target: recombinant TEAD1 protein central pocket (Homo sapiens (Human), UniProt P28347); assay: Competitive thiol binding assay (CPM assay), TEAD1; conditions: 150 nM recombinant TEAD protein, 150 nM CPM
Sequence of recombinant TEAD1 protein central pocket (P28347 whole entry): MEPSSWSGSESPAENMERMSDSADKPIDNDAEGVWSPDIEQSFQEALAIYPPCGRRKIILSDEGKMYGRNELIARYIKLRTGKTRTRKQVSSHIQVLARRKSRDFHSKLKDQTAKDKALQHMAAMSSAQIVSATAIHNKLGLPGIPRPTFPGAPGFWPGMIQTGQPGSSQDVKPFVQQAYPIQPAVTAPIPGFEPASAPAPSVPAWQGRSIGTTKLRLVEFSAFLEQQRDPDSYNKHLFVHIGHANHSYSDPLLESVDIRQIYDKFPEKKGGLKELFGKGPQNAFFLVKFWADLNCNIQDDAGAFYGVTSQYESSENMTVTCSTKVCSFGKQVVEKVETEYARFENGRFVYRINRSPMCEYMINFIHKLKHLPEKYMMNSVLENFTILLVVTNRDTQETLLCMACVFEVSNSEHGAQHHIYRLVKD
Protocol: Diluting the tested compound in gradient to 5 uL with buffer (25 mM HEPES, 150 mM NaCl, pH6.5), then adding 5 μL of the newly prepared 0.45 uM recombinant TEAD protein solution, and incubating at room temperature for 10 minutes. […] After shaking the plate at room temperature for 1 hour, measuring the fluorescence intensity (Ex/Em: 380/470 nm).

[3] = In vitro liver microsome stability, dog; type: in vitro ADME; conditions: dog liver microsomes
Protocol: as §1, §2, §3

[4] = In vitro liver microsome stability, mouse; type: in vitro ADME; conditions: mouse liver microsomes
Protocol: as §1, §2, §3

[5] = molecular target: recombinant TEAD3 protein (218-435, Uniprot ID: Q99594) (Homo sapiens (Human), UniProt Q99594); assay: Thermal shift assay (protein melting point curve), TEAD3; type: binding; conditions: 10 μM TEAD protein, 50 μM test compound
Sequence of recombinant TEAD3 protein (218-435, Uniprot ID: Q99594) (Q99594 218-435): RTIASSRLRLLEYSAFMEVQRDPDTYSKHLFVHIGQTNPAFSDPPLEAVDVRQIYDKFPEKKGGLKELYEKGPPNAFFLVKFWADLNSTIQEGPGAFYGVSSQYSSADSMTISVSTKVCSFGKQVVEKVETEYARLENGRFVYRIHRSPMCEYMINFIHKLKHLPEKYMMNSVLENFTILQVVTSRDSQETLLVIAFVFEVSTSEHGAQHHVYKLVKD

[6] = test system: recombinant TEAD1 protein (194-411, Uniprot ID: P28347); assay: Thermal shift assay (protein melting point curve), TEAD1; type: binding; parameters: key to the marks not given beside the values; conditions: 10 μM TEAD protein, 50 μM test compound
[7] = molecular target: recombinant TEAD4 protein (217-434, Uniprot ID: Q15561) (Homo sapiens (Human), UniProt Q15561); assay: Thermal shift assay (protein melting point curve), TEAD4; type: binding; conditions: 10 μM TEAD protein, 50 μM test compound
Sequence of recombinant TEAD4 protein (217-434, Uniprot ID: Q15561) (Q15561 217-434): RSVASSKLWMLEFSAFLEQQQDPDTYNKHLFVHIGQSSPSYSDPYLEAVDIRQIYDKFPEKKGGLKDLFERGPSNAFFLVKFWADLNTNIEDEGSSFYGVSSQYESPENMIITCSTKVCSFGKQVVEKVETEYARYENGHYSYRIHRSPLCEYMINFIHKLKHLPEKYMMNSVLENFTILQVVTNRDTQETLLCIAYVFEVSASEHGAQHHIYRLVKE

[8] = molecular target: recombinant TEAD2 protein (218-447, Uniprot ID: Q15562) (Homo sapiens (Human), UniProt Q15562); assay: Thermal shift assay (protein melting point curve), TEAD2; type: binding; conditions: 10 μM TEAD protein, 50 μM test compound
Sequence of recombinant TEAD2 protein (218-447, Uniprot ID: Q15562) (Q15562 218-447): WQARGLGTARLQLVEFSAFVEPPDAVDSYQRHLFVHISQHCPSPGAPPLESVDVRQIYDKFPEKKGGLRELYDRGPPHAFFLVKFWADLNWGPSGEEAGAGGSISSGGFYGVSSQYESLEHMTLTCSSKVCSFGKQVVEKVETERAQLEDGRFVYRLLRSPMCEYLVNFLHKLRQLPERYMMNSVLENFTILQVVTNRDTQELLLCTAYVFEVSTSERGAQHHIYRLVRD

[9] = SD rat plasma pharmacokinetic test; type: in vivo
Protocol: Animal information: SD rats, male, n=6, about 180-200 g, purchased from Sibeifu (Beijing) Biotechnology Co., Ltd.
Animal dietary status: Animals are fasted for at least 12 h before administration and resumed eating 4h after administration; during the experiment, animals are allowed to drink water freely.
Administration: administering the compound to experimental animals (n=3) by intragastric administration at a dose of 10 mg/kg, and the solvent is 0.5% CMC-Na; administering the compound to experimental animals (n=3) by intravenous injection at a dose of 1 mg/kg, and the solvent is DMSO:PEG400:normal saline=5:30:65, preparing immediately before use.
Sample collection: collecting about 0.25 mL of whole blood at each time point, anticoagulating with EDTA-K2, and placing on ice immediately after collection, within 0.5 h after collection, centrifuging at 4° C., 2000 g for 5 min, and sucking up all plasma and placing in labeled EP tubes, placing the EP tubes on ice, and freezing the plasma samples in a −60˜−90° C. refrigerator within 0.5 h.
Sample processing: centrifuging whole blood samples at 4° C., 2000 g for 5 min within 30 min after collection to separate plasma, and collecting the upper plasma sample into a sample tube.
Sample testing and data processing: Using LC-MS/MS method to detect the concentration of the original drug in plasma samples at each time point. WinNonlin is used for fitting and pharmacokinetic parameter calculation.

**Q.** Which rat half-life [1] does the source give for `CP(C)(=O)c1ccc(NCc2ccc(C(F)(F)F)cc2)c(-c2nccc(OC3COC3)n2)c1` [Compound 17] here?
**A.** 48.0 min

**Q.** And the IC50 [2]?
**A.** 290 nM

**Q.** And the dog half-life [3]?
**A.** 141 min

**Q.** What about the mouse half-life [4] of the same compound?
**A.** 33.9 min

**Q.** And the “Δ T m (TEAD3)” value [5]?
**A.** +

**Q.** What about the “Δ T m (TEAD1)” value [6] of the same compound?
**A.** ++++

**Q.** What about the “Δ T m (TEAD4)” value [7] of the same compound?
**A.** ++

**Q.** And the “Δ T m (TEAD2)” value [8]?
**A.** ++

**Q.** What about the “pharmacokinetic properties in SD rats” value [9] of the same compound?
**A.** good pharmacokinetic properties

**Q.** What about the AUC0-t ([9]; SD rats, IG 10 mg/kg) of the same compound?
**A.** 4440 ng·h/mL

**Q.** What about the “AUC0-∞” value ([9]; SD rats, IG 10 mg/kg) of the same compound?
**A.** 4510 ng·h/mL

**Q.** What about the Cmax ([9]; SD rats, IG 10 mg/kg) of the same compound?
**A.** 1480 ng/mL

**Q.** And the MRT0-t ([9]; SD rats, IG 10 mg/kg)?
**A.** 2.25 h

**Q.** And the “MRT0-∞” value ([9]; SD rats, IG 10 mg/kg)?
**A.** 2.37 h

**Q.** What about the Tmax ([9]; SD rats, IG 10 mg/kg) of the same compound?
**A.** 0.50 (0.5, 0.5) h

**Q.** What about the t1/2 ([9]; SD rats, IG 10 mg/kg) of the same compound?
**A.** 1.26 h

**Q.** And the “Absolute bioavailability (%)” value ([9]; SD rats, IG 10 mg/kg vs IV 1 mg/kg)?
**A.** 84.9%

**Q.** And the AUC0-t ([9]; SD rats, IV 1 mg/kg)?
**A.** 506 ng·h/mL

**Q.** And the “AUC0-∞” value ([9]; SD rats, IV 1 mg/kg)?
**A.** 523 ng·h/mL

**Q.** And the CL ([9]; SD rats, IV 1 mg/kg)?
**A.** 1970 mL/h/kg

**Q.** What about the Cmax ([9]; SD rats, IV 1 mg/kg) of the same compound?
**A.** 333 ng/mL

**Q.** What about the MRT0-t ([9]; SD rats, IV 1 mg/kg) of the same compound?
**A.** 1.52 h

**Q.** And the “MRT0-∞” value ([9]; SD rats, IV 1 mg/kg)?
**A.** 1.73 h

**Q.** What about the Vss ([9]; SD rats, IV 1 mg/kg) of the same compound?
**A.** 3360 mL/kg

**Q.** And the t1/2 ([9]; SD rats, IV 1 mg/kg)?
**A.** 1.18 h
